Where two headings read alike, the source gives them in different places.
Experiments:
[1] = molecular target: BB7 RNA-dependent RNA polymerase hepatitis C virus protein (Con1 HCV sequence) (Hepatitis C virus genotype 1b, UniProt Q9WMX2); assay: Hepatitis C polymerase (BB7) inhibition; assay type: biochemical
Text: For purposes of this invention, the term “BB7” denotes an RNA-dependent RNA polymerase hepatitis C virus protein sequence which is derived from HCV replicon. A discussion of BB7 and related technology can be found in Blight, K. et al. (2000) Science 290:1972-1974. BB7 can be licensed from Apath, LLC (893 North Warson Road, Saint Louis Mo. 63141, USA). BB7 is also referred to as Con1 HCV sequence and discussions of Con1 can be found in the following references: Lohmann, V. et al. (1999) Science 285:110-113; Pietschmann, T. et al. (2001) J. Virol. […]:1252-1264; Lohmann, V. et al. (2001) J. Virol. 75:1437-1449.
(§1) The ability of the compounds of the present invention to inhibit Hepatitis C Polymerase was established by the following experimental procedure:
(§2) • 0.5M Na Phosphate buffer. Per liter, weigh 134 gr Na2HPO4.7H2O, add water to 900 ml. Adjust pH to 7.0 with phosphoric acid. Top off with water to 1 L. • Dilute nucleotides 1:1000 to 10 μM (GTP and CTP) or 1:100 to 100 μM (ATP and UTP) into RNase free water. Procedure: • (1) Compounds 10 μl at […] in 15% dimethylsulfoxide (DMSO) When starting from 100 μg/ml compound stock in 1% DMSO: Dispense 5 μl 30% DMSO per well Dispense 5 μl compound (100 μg/ml) per well. When starting from 50 μg/ml compound stock in 15% DMSO: Add 10 μl compound per well.
(§3) Add 20 μl enzyme mix into each well of the assay plate. Incubate compound and enzyme at room temperature for 15 minutes • (3) Template mix—prepare ahead
(§4) Spin down a tube of RNA (5 μg/tube stored in 75% ethanol and 0.3 M sodium acetate) in a microcentrifuge for 20 minutes at 4° C. One tube is enough for 1-1.5 plates. Remove as much ethanol from the tube as possible by inverting the tube. Be gentle, pellet RNA may not adhere to the tube. Vacuum dry the RNA. Resuspend the RNA by adding 1 ml of DEPC water, close the cap of the tube tightly. To dissolve RNA, incubate RNA solution on ice for ˜60 minutes and gently vortex. Spin briefly to ensure all RNA solution is down to the bottom of the tube before opening cap. Gently transfer RNA solution into a 5 ml or larger tube. Add another 3 ml of DEPC water (total 4 ml of volume).
(§5) Add the following volumes of reagents
(§6) Add 20 μl template mix per reaction (i.e. 20 ng of pOF per reaction or ˜3 nM) • (4) Incubate reaction at room temperature (22-25° C.) for 2 hours. • (5) Stop reaction by adding 50 μl of 170 mM EDTA.
(§7) Final concentration of EDTA is 85 mM. • (6) Prewet filters of Millipore multiscreen assay plate by adding 200 μl of 0.5 M sodium phosphate buffer, pH 7.0 into each well. Let stand at room temperature for 2-3 minutes. • (7) Place the multiscreen filter plate onto a Millipore Manifold and turn on vacuum to allow buffer to flow through. Turn off vacuum. Transfer 80 μl of the reaction product into each well of the filter plate. Let stand for 2-3 minutes. Turn on vacuum to filter reaction product. • (8) Turn off vacuum. Add 200 μl of 0.5 M sodium phosphate buffer, pH 7.0 into each well to wash filter. Turn on vacuum.
(§8) Repeat step (8) three more times. • (9) Remove polypropylene bottom. Spot dry filter at the bottom with paper towel. Air dry filter plate on a bench for 1 hour. Add 40 μl Super Mix scintillant. Seal top of the plate with a tape. Place plate into a Packard carrier or micro-beta carrier. • (10) Count plate using a Packard Topcount or micro-beta counter. Count (for example using Program 10) for ^33P in Top count or ^33P program in micro-beta.
(§9) See, Ferrari et al. 1999. J. Virology 73:1649-1654: “Characterization of soluble Hepatitis C virus RNA-dependent RNA polymerase expressed in E. coli and Takamizawa et al. 1991” and J. Virology 65:1105-1113: “Structure and characterization of the Hepatitis C virus genome isolated from human carriers,” both references are hereby incorporated by reference.

[2] = molecular target: T1, NS5B from the BK strain (genotype 1b) (Hepatitis C virus genotype 1b, UniProt P26663); assay: Hepatitis C polymerase (NS5B, BK strain) inhibition, radioactive filter assay; assay type: biochemical; details: NS5B BK strain (genotype 1b)
T1 construct: NS5B from the BK strain (genotype 1b) is expressed in E coli as a protein in which the 21 C-terminal amino acids are replaced; made in house; host or cells: E. coli
Text: as §1
NS5B from the BK strain (genotype 1b) is expressed in E coli as a protein in which the 21 C-terminal amino acids are replaced with a short linker and a hexahistidine tag ([…]). The purified protein is mixed with radioactive nucleotides and allowed to replicate a heteropolymeric RNA substrate, primed by an endogenous short hairpin, resulting in an approximately 760 nt product. The radioactive product is captured on a filter and quantitated after removal of the unincorporated nucleotides.
as §2, §3, §4, §5, §6, §7, §8, §9

Sequence of BB7 RNA-dependent RNA polymerase hepatitis C virus protein (Con1 HCV sequence) (Q9WMX2 2420-3010): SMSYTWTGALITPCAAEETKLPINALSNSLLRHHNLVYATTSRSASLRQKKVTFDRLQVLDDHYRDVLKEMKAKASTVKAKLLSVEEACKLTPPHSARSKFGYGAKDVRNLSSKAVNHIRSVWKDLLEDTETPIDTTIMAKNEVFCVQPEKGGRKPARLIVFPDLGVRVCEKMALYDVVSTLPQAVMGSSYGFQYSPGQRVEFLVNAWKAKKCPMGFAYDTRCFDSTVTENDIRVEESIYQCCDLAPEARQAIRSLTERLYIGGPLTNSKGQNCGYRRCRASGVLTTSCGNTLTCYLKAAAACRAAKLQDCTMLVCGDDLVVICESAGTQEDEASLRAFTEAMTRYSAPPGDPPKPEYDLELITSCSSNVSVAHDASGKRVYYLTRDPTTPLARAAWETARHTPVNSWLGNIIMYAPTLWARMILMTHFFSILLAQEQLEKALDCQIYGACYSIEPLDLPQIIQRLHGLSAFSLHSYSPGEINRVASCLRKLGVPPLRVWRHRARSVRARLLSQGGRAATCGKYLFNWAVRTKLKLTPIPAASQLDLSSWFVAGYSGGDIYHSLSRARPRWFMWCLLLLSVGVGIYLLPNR
T1 sequence (P26663 2420-2989): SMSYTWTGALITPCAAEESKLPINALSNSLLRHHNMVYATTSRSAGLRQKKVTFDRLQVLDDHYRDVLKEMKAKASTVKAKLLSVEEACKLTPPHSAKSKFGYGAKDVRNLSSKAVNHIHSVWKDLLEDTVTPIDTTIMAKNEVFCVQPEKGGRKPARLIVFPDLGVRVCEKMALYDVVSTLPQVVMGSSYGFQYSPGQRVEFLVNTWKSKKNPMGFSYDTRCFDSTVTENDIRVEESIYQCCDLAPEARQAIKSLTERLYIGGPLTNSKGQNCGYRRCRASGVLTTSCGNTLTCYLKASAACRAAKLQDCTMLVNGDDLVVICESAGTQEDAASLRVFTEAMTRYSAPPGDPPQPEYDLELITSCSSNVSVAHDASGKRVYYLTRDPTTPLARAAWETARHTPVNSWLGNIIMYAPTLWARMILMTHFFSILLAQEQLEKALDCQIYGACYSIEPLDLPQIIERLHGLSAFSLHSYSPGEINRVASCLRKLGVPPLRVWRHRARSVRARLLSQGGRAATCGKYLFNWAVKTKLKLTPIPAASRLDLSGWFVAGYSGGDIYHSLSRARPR

Row | SMILES | IC50 [1] [nM] | IC50 [2] [nM] | IC50 ([1]; read-out: BB7 IC50, BB7 (Con1) NS5B) [nM] | IC50 ([1]; BB7 (Con1) NS5B, read-out: BB7 IC50) [nM]
1 | CCCC1(CC(=O)O)OCCc2c1[nH]c1c(C)c(COc3ccccc3)cc(C#N)c21 (centres unmarked) [Example 20, (5-Cyano-8-methyl-7-phenoxymethyl-1-propyl-1,3,4,9-tetrahydro-pyrano[3,4-b]indol-1-yl)-acetic acid] | 500 to 5000 | 500 to 5000 | – | –
2 | CCCC1(CC(=O)O)OCCc2c1[nH]c1c(C)c(COc3cccc(F)c3)cc(C#N)c21 (centres unmarked) [Example 21, [5-Cyano-7-(3-fluoro-phenoxymethyl)-8-methyl-1-propyl-1,3,4,9-tetrahydro-pyrano[3,4-b]indol-1-yl]-acetic acid] | < 500 | < 500 | – | –
3 | CCCC1(CC(=O)O)OCCc2c1[nH]c1c(C)c(OCC3CC3)cc(C#N)c21 (centres unmarked) [Example 22, (5-Cyano-7-cyclopropylmethoxy-8-methyl-1-propyl-1,3,4,9-tetrahydro-pyrano[3,4-b]indol-1-yl)-acetic acid] | < 500 | < 500 | – | –
4 | CCC[C@]1(CC(=O)O)OCCc2c1[nH]c1c(C)c(OCc3cc(C)on3)cc(C#N)c21 [Example 23, (R)-[5-Cyano-8-methyl-7-(5-methyl-isoxazol-3-ylmethoxy)-1-propyl-1,3,4,9-tetrahydro-pyrano[3,4-b]indol-1-yl]-acetic acid] | < 500 | < 500 | – | –
5 | CCCC1(CC(=O)O)OCCc2c1[nH]c1c(C)c(OCc3ccncc3)cc(C#N)c21 (centres unmarked) [Example 24, [5-Cyano-8-methyl-1-propyl-7-(pyridin-4-ylmethoxy)-1,3,4,9-tetrahydro-pyrano[3,4-b]indol-1-yl]-acetic acid] | < 500 | < 500 | – | –
6 | CCC[C@]1(CC(=O)O)OCCc2c1[nH]c1c(C)c(OCc3cc(C)n(C)n3)cc(C#N)c21 [Example 25, (R)-[5-Cyano-7-(1,5-dimethyl-1H-pyrazol-3-ylmethoxy)-8-methyl-1-propyl-1,3,4,9-tetrahydro-pyrano[3,4-b]indol-1-yl]-acetic acid] | < 500 | < 500 | – | –
7 | CCC[C@]1(CC(=O)O)OCCc2c1[nH]c1c(C)c(OCCOC(C)C)cc(C#N)c21 [Example 26, (R)-[5-Cyano-7-(2-isopropoxy-ethoxy)-8-methyl-1-propyl-1,3,4,9-tetrahydro-pyrano[3,4-b]indol-1-yl]-acetic acid] | < 500 | < 500 | – | –
8 | CCC[C@]1(CC(=O)O)OCCc2c1[nH]c1c(C)c(OCCCOC)cc(C#N)c21 [Example 27, (R)-[5-Cyano-7-(3-methoxy-propoxy)-8-methyl-1-propyl-1,3,4,9-tetrahydro-pyrano[3,4-b]indol-1-yl]-acetic acid] | < 500 | < 500 | – | –
9 | CCC[C@]1(CC(=O)O)OCCc2c1[nH]c1c(C)c(OC[C@@H](C)OC)cc(C#N)c21 [Example 28, (1R,2′R)-[5-Cyano-7-(2-methoxy-propoxy)-8-methyl-1-propyl-1,3,4,9-tetrahydro-pyrano[3,4-b]indol-1-yl]-acetic acid] | < 500 | < 500 | – | –
10 | CCC[C@]1(CC(=O)O)OCCc2c1[nH]c1c(C)c(OCc3nnc(C)s3)cc(C#N)c21 [Example 29, (R)-[5-Cyano-8-methyl-7-(5-methyl-[1,3,4]thiadiazol-2-ylmethoxy)-1-propyl-1,3,4,9-tetrahydro-pyrano[3,4-b]indol-1-yl]-acetic acid] | < 500 | < 500 | – | –
11 | CCC[C@]1(CC(=O)O)OCCc2c1[nH]c1c(C)c(OCc3nsc(N(C)C)n3)cc(C#N)c21 [Example 30, (R)-[5-Cyano-7-(5-dimethylamino-[1,2,4]thiadiazol-3-ylmethoxy)-8-methyl-1-propyl-1,3,4,9-tetrahydro-pyrano[3,4-b]indol-1-yl]-acetic acid] | < 500 | < 500 | – | –
12 | CCCC1(C(=O)O)OCCc2c1[nH]c1c(C)c(OCCOC)cc(C#N)c21 (centres unmarked) [Example 31, 5-Cyano-7-(2-methoxy-ethoxy)-8-methyl-1-propyl-1,3,4,9-tetrahydro-pyrano[3,4,-b]indole-1-carboxylic acid] | 500 to 5000 | 500 to 5000 | – | –
13 | CCCC1(C(=O)O)OCCc2c1[nH]c1c(C)c(OCc3cc(C)on3)cc(C#N)c21 (centres unmarked) [Example 32, 5-Cyano-8-methyl-7-(5-methyl-isoxazol-3-ylmethoxy)-1-propyl-1,3,4,9-tetrahydro-pyrano[3,4,-b]indole-1-carboxylic acid] | < 500 | < 500 | – | –
14 | CCC(C)C1(CC(=O)O)OCCc2c1[nH]c1c(C)c(OCc3cc(C)n(C)n3)cc(C#N)c21 [Example 36, (1R*,10S)-[1-sec-Butyl-5-cyano-7-(1,5-dimethyl-1H-pyrazol-3-ylmethoxy)-8-methyl-1,3,4,9-tetrahydro-pyrano[3,4-b]indol-1-yl]-acetic acid] | < 500 | < 500 | – | –
15 | CCCC1(C(=O)O)OCCc2c1[nH]c1c(C)c(OCc3ccncc3)cc(C#N)c21 (centres unmarked) [Example 37] | < 500 | < 500 | – | –
16 | CCCC1(CC(=O)O)OCCc2c1[nH]c1c(C)c(OCc3ccncc3)cc(C#N)c21 (centres unmarked) [Example 38] | – | < 500 | < 500 | –
17 | CCCC1(CC(=O)O)OCCc2c1[nH]c1c(C)c(O[C@@H]3CCOC3)cc(C#N)c21 (some centres unmarked) [Example 39] | – | < 500 | – | < 500
18 | CCCC1(CC(=O)O)OCCc2c1[nH]c1c(C)c(O[C@H]3CCOC3)cc(C#N)c21 (some centres unmarked) [Example 40] | < 500 | < 500 | – | –
19 | CCCC1(CC(=O)O)OCCc2c1[nH]c1c(C)c(OCc3cccnc3)cc(C#N)c21 (centres unmarked) [Example 41] | < 500 | < 500 | – | –
20 | CCCC1(CC(=O)O)OCCc2c1[nH]c1c(C)c(O[C@@H]3CCNC3)cc(C#N)c21 (some centres unmarked) [Example 42] | 500 to 5000 | < 500 | – | –
21 | CCCC1(CC(=O)O)OCCc2c1[nH]c1c(C)c(OCCOC)cc(C#N)c21 (centres unmarked) [Example 43] | < 500 | < 500 | – | –
22 | CCC[C@]1(CC(=O)O)OCCc2c1[nH]c1c(C)c(OCCOC)cc(C#N)c21 [Example 44] | < 500 | < 500 | – | –
23 | CCCC1(CC(=O)O)OCCc2c1[nH]c1c(C)c(O)cc(C#N)c21 (centres unmarked) [Example 45] | < 500 | < 500 | – | –
24 | CCC[C@]1(CC(=O)O)OCCc2c1[nH]c1c(C)c(O)cc(C#N)c21 [Example 46] | < 500 | < 500 | – | –
25 | CCC[C@@]1(CC(=O)O)OCCc2c1[nH]c1c(C)c(O)cc(C#N)c21 [Example 47] | 500 to 5000 | > 5000 | – | –
26 | CCCC1(CC(=O)O)OCCc2c1[nH]c1c(C)c(OCCC3CC3)cc(C#N)c21 (centres unmarked) [Example 48] | < 500 | < 500 | – | –
27 | CCCC1(CC(=O)O)OCCc2c1[nH]c1c(C)c(OCc3ccccn3)cc(C#N)c21 (centres unmarked) [Example 49] | < 500 | < 500 | – | –
28 | CCCC1(CC(=O)O)OCCc2c1[nH]c1c(C)c(OCCSC)cc(C#N)c21 (centres unmarked) [Example 50] | < 500 | < 500 | – | –

— patent US20070219212A1, “Pyranouidole Derivatives and the Use Thereof for the Treatment of Hepatitis C Virus Infection or Disease” (priority 2004, published 2007)
